The target in this assay is T1, hALAS2 (human erythroid-specific 5-aminolevulinate synthase) (Homo sapiens, UniProt P22557).
T1 sequence (P22557 80-587): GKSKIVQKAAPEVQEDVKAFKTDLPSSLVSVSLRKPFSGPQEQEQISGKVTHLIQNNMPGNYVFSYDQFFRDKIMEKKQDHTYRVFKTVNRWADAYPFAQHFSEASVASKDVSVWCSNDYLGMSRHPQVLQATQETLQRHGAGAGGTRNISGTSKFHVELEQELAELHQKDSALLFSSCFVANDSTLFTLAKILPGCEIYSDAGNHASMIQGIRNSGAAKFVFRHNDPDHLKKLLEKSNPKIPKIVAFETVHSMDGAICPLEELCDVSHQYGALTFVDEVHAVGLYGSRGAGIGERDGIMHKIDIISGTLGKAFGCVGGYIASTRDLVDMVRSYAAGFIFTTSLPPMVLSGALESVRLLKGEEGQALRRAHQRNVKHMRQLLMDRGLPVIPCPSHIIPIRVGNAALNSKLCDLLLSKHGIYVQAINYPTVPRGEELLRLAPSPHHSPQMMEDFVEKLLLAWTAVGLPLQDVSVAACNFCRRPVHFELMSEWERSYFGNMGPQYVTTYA
The assay can be described thus: absorption spectroscopy, A420/A330 ratio. The assay is classed as binding. The following applies: PLP holoenzyme.

Consider `NCC(=O)O` [glycine], for which the “absorption spectroscopy, A420/A330 ratio (PLP-glycine aldimine)” value is listed as “In all cases, the A420/A330 ratio was increased upon reaction with glycine”.

Values taken from PMC4573335 (Biochemistry, 2015).
